Test results: ChEMBL document CHEMBL3769364, “Synthesis and structure-activity relationship studies of novel 3,9-substituted α-carboline derivatives with high cytotoxic activity against colorectal cancer cells” (Eur J Med Chem, 2016)

Columns and labels:
Detroit 551 = assay: Cytotoxicity against human Detroit 551 cells after 48 hrs by MTT assay; details: Detroit 551, 48 h
A498 = assay: Cytotoxicity against human A498 cells after 48 hrs by MTT assay; details: A498, 48 h
[1] = Cytotoxicity against human Hep3B cells after 48 hrs by MTT assay
[2] = Cytotoxicity against human H460 cells after 48 hrs by MTT assay; details: NCI-H460, 48 h
[3] = Cytotoxicity against human COLO205 cells after 48 hrs by MTT assay; details: COLO 205, 48 h
[4] = Cytotoxicity against human HL60 cells after 48 hrs by MTT assay; details: HL-60, 48 h

SMILES	IC50 (Detroit 551) [µM]	IC50 (A498) [µM]	IC50 [1] [µM]	IC50 [2] [µM]	IC50 [3] [µM]	IC50 [4] [µM]
COC(=O)c1cnc2c(c1)c1ccccc1n2Cc1cc(OC)c(OC)c(OC)c1	> 50	> 50	–	–	–	–
COc1ccc(Cn2c3ccccc3c3cc(CO)cnc32)cc1	> 50	–	> 50	> 50	–	–
COC(=O)c1cnc2c(c1)c1ccccc1n2Cc1c(F)cccc1F	> 50	> 50	> 50	> 50	> 50	> 50
OCc1cnc2c(c1)c1ccccc1n2Cc1ccco1	> 50	> 50	> 50	> 50	> 50	> 50
COC(=O)c1cnc2c(c1)c1ccccc1n2Cc1ccc(F)c(F)c1	–	> 50	> 50	> 50	> 50	–
COC(=O)c1cnc2c(c1)c1ccccc1n2Cc1cccc(Cl)c1Cl	> 50	> 50	> 50	> 50	> 50	–
OCc1cnc2c(c1)c1ccccc1n2Cc1c(F)cccc1F	–	> 50	> 50	> 50	> 50	–
COC(=O)c1cnc2c(c1)c1ccccc1n2Cc1cccc(Cl)c1	> 50	> 50	> 50	–	> 50	–
COC(=O)c1cnc2c(c1)c1ccccc1n2Cc1ccc(F)cc1F	> 50	> 50	> 50	> 50	> 50	> 50
COC(=O)c1cnc2c(c1)c1ccccc1n2Cc1ccco1	> 50	> 50	> 50	> 50	> 50	> 50
OCc1cnc2c(c1)c1ccccc1n2Cc1ccoc1	> 50	> 50	> 50	> 50	> 50	> 50
OCc1cnc2c(c1)c1ccccc1n2Cc1ccc(F)cc1	> 50	> 50	> 50	> 50	> 50	–
OCc1cnc2c(c1)c1ccccc1n2Cc1ccc(F)cc1F	> 50	> 50	> 50	> 50	–	–
COC(=O)c1cnc2c(c1)c1ccccc1n2Cc1cc(OC)cc(OC)c1	–	> 50	–	–	–	–
COC(=O)c1cnc2c(c1)c1ccccc1n2Cc1cccs1	> 50	> 50	> 50	> 50	> 50	> 50
COC(=O)c1cnc2c(c1)c1ccccc1n2Cc1ccc(Cl)cc1	> 50	> 50	> 50	> 50	> 50	> 50
COc1cc(Cn2c3ccccc3c3cc(C(=O)O)cnc32)cc(OC)c1	> 100	–	–	> 50	> 50	–
COC(=O)c1cnc2c(c1)c1ccccc1n2Cc1ccccc1	> 50	> 50	> 50	> 50	> 50	> 50
COC(=O)c1cnc2[nH]c3ccccc3c2c1	> 50	–	> 50	–	> 50	–
COC(=O)c1cnc2c(c1)c1ccccc1n2Cc1c(Cl)cccc1Cl	> 50	> 50	> 50	> 50	> 50	> 50
COC(=O)c1cnc2c(c1)c1ccccc1n2Cc1cc(F)cc(F)c1	> 50	> 50	> 50	> 50	> 50	> 50
OCc1cnc2c(c1)c1ccccc1n2Cc1ccc(Cl)cc1	> 50	> 50	–	> 50	> 50	–
OCc1cnc2c(c1)c1ccccc1n2Cc1c(Cl)cccc1Cl	–	> 50	–	–	> 50	> 50
COC(=O)c1cnc2c(c1)c1ccccc1n2Cc1ccc(OC)cc1	–	> 50	> 50	> 50	> 50	> 50

SMILES	IC50 (Detroit 551) [µM]	IC50 (A498) [µM]	IC50 [1] [µM]	IC50 [2] [µM]	IC50 [3] [µM]	IC50 [4] [µM]
COC(=O)c1cnc2c(c1)c1ccccc1n2Cc1ccccc1F	> 50	> 50	> 50	> 50	> 50	> 50
COC(=O)c1cnc2c(c1)c1ccccc1n2Cc1ccoc1	> 50	> 50	> 50	> 50	> 50	> 50
OCc1cnc2c(c1)c1ccccc1n2Cc1ccccc1Cl	–	–	–	–	> 50	–
COC(=O)c1cnc2c(c1)c1ccccc1n2Cc1ccccc1Cl	> 50	> 50	> 50	> 50	> 50	–
O=C(O)c1cnc2c(c1)c1ccccc1n2Cc1ccccc1	> 100	> 50	> 100	> 100	> 50	> 100
COC(=O)c1cnc2c(c1)c1ccccc1n2Cc1ccc2c(c1)OCO2	> 50	> 50	> 50	> 50	> 50	> 50
OCc1cnc2c(c1)c1ccccc1n2Cc1ccccc1	–	> 50	–	–	–	–
COc1cc(Cn2c3ccccc3c3cc(C(=O)O)cnc32)cc(OC)c1OC	> 50	–	–	–	–	> 50
COC(=O)c1cnc2c(c1)c1ccccc1n2Cc1ccsc1	> 50	> 50	> 50	> 50	> 50	> 50
COC(=O)c1cnc2c(c1)c1ccccc1n2Cc1ccc(Cl)c(Cl)c1	> 50	> 50	> 50	–	> 50	–
COC(=O)c1cnc2c(c1)c1ccccc1n2Cc1cc(F)ccc1F	–	> 50	> 50	> 50	> 50	–
COC(=O)c1cnc2c(c1)c1ccccc1n2Cc1ccc(Cl)cc1Cl	> 50	> 50	> 50	> 50	> 50	> 50
COc1cccc(Cn2c3ccccc3c3cc(CO)cnc32)c1	> 50	–	–	–	–	–
OCc1cnc2c(c1)c1ccccc1n2Cc1ccc(F)c(F)c1	–	> 50	> 50	> 50	–	–
OCc1cnc2c(c1)c1ccccc1n2Cc1ccc(Cl)c(Cl)c1	> 50	–	–	–	–	–
OCc1cnc2c(c1)c1ccccc1n2Cc1ccc(Cl)cc1Cl	–	> 50	–	–	–	–
COc1cc(Cn2c3ccccc3c3cc(CO)cnc32)cc(OC)c1	> 50	–	–	–	–	–
OCc1cnc2c(c1)c1ccccc1n2Cc1cccs1	> 50	> 50	> 50	> 50	> 50	> 50
OCc1cnc2c(c1)c1ccccc1n2Cc1ccsc1	> 50	> 50	–	> 50	> 50	> 50
COC(=O)c1cnc2c(c1)c1ccccc1n2Cc1cccc(OC)c1	> 50	> 50	–	–	> 50	–
OCc1cnc2[nH]c3ccccc3c2c1	> 50	–	–	–	–	49.7
COC(=O)c1cnc2c(c1)c1ccccc1n2Cc1ccc(F)cc1	> 50	> 50	> 50	> 50	> 50	> 50
OCc1cnc2c(c1)c1ccccc1n2Cc1ccc2c(c1)OCO2	–	> 50	> 50	> 50	> 50	–
